Laboratory results: US8586588B2, “Aryl pyridazinone derivatives and their use as H3 receptor ligands” (Cephalon, Inc., priority 2006, dated 2013)

Experiments:
human H3 receptor = target: T1, human H3 receptor (Homo sapiens, UniProt Q9Y5N1); test: Human H3 radioligand binding ([3H]-N-alpha-methylhistamine, CHO cell membranes, SPA); conditions: Table A, binding constant as letter class
T1 construct: expressed in transfected cells
Procedure: (§1) Cell pellets were resuspended in 5 mM Tris-HCl, pH 7.5 with […] and a cocktail of protease inhibitors (Complete Protease Inhibition Tablets, Roche Diagnostics). Cells were disrupted using a polytron cell homogenizer and the suspension was centrifuged at 1000×g for 10 minutes at 4° C. The pellet was discarded and the supernatant centrifuged at 40,000×g for 30 min at 4° C. This membrane pellet was washed in membrane buffer containing 50 mM Tris-HCl, pH 7.5 with 0.6 mM EDTA, 5 mM MgCl2 and protease inhibitors, recentrifuged as above and the final pellet resuspended in membrane buffer plus 250 mM sucrose and frozen at −80° C.
(§2) Membranes were resuspended in 50 mM Tris HCl (pH 7.4), 5 mM MgCl2, 0.1% BSA. The membrane suspensions (10 μg protein per well) were incubated in a 96 well microtiter plate with [^3H]-N-alpha-methylhistamine (approximately 1 nM final concentration), test compounds at various concentrations (0.01 nM-30 μM) and scintillation proximity beads (Perkin Elmer, FlashBlueGPCR Scintillating Beads) in a final volume of 80 μl for 4 hours at room temperature, protected from light. Non-specific binding was determined in the presence of 10 μM clobenpropit. Radioligand bound to receptor, and therefore in proximity to the scintillation beads, was measured using a MicroBeta scintillation counter.

[1] = target: T2, rat histamine H3 receptor (Rattus norvegicus, UniProt Q9QYN8); test: Rat H3 radioligand binding ([3H]-N-alpha-methylhistamine, CHO-A3 cell membranes, SPA); conditions: Table A, binding constant as letter class; read-out: Rat H3 Ki
T2 construct: encoding the entire 445-amino-acid rat histamine H3 receptor; expressed in transfected cells
T2 sequence (Q9QYN8 whole entry): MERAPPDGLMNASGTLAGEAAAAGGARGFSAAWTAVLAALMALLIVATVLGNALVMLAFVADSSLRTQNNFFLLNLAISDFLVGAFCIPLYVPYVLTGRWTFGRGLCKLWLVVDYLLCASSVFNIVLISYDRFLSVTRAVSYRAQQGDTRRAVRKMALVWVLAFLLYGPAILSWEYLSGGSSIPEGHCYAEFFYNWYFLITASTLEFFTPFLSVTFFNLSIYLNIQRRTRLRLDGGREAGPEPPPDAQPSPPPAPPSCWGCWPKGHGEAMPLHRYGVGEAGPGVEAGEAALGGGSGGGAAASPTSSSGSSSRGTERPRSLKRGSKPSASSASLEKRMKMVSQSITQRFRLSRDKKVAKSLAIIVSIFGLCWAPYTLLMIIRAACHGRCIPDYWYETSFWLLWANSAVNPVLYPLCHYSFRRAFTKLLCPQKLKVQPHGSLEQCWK
Procedure: as §1, with “This was engineered into the pIRES-neo3 mammalian expression vector, which was stably transfected into the CHO-A3 cell line (Euroscreen, Belgium), followed by clonal selection by limiting dilution. Cells were harvested and cell pellets were frozen (−80° C.). Cell pellets” for “Cell pellets”
as §2

T1 sequence (Q9Y5N1 whole entry): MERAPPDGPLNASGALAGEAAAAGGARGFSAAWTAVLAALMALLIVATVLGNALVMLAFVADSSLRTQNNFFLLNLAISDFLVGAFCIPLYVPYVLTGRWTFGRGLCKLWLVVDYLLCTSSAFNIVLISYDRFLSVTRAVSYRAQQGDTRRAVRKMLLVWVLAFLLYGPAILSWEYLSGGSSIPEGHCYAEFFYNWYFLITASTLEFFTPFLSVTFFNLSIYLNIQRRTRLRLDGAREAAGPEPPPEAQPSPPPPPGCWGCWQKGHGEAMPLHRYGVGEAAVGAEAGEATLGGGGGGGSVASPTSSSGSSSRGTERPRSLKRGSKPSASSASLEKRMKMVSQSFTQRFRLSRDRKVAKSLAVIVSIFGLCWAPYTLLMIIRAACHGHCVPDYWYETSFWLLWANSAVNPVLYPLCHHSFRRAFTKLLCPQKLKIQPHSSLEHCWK

Structure (SMILES)	Ki (human H3 receptor) [nM]	Ki [1] [nM]
Cn1nc(-c2ccc(OCCCN3CCCCC3)cc2)ccc1=O [Example 2, 2-Methyl-6-[4-(3-piperidin-1-yl-propoxy)-phenyl]-2H-pyridazin-3-one]	0.1 to 100	101 to 500
CC(C)n1nc(-c2ccc(OCCCN3CCCCC3)cc2)ccc1=O [Example 3, 2-Isopropy1-6-[4-(3-piperidin-1-yl-propoxy)-pheny1]-2H-pyridazin-3-one]	0.1 to 100	0.1 to 100
CC(C)N1N=C(c2ccc(OCCCN3CCCCC3)cc2)CCC1=O [Example 4, 2-Isopropy1-6-[4-(3-piperidin-1-yl-propoxy)-phenyl]-4,5-dihydro-2H-pyridazin-3-one]	0.1 to 100	0.1 to 100
CC(C)n1nc(-c2ccc(OCCCN3CCC[C@H]3C)cc2)ccc1=O [Example 5, 2-Isopropyl-6-{4-[3-((R)-2-methyl-pyrrolidin-1-yl)-propoxy]-phenyl}-2H-pyridazin-3-one]	0.1 to 100	0.1 to 100
CCn1nc(-c2ccc(OCCCN3CCC[C@H]3C)cc2)ccc1=O [Example 6, 2-Ethyl-6-{4-[3-((R)-2-methyl-pyrrolidin-1-yl)-propoxy]-phenyl}-2H-pyridazin-3-one]	0.1 to 100	0.1 to 100
C[C@@H]1CCCN1CCCOc1ccc(-c2ccc(=O)n(C)n2)cc1F [Example 7, 6-{3-Fluoro-4-[3-((R)-2-methyl-pyrrolidin-1-yl)-propoxy]-phenyl}-2-methyl-2H-pyridazin-3-one]	0.1 to 100	0.1 to 100
C[C@@H]1CCCN1CCCOc1ccc(C2=NN(Cc3ccc(Cl)cc3Cl)C(=O)CC2)cc1 [Example 8, 2-(2,4-Dichloro-benzyl)-6-{4-[3-((R)-2-methyl-pyrrolidin-1-yl)-propoxy]-phenyl}-4,5-dihydro-2H-pyridazin-3-one]	0.1 to 100	0.1 to 100
C[C@@H]1CCCN1CCCOc1ccc(-c2ccc(=O)n(-c3cc(Cl)cc(Cl)c3)n2)cc1 [Example 9, 2-(3,5-Dichloro-phenyl)-6-{4-[3-((R)-2-methyl-pyrrolidin-1-yl)-propoxy]-phenyl}-2H-pyridazin-3-one]	0.1 to 100	0.1 to 100
O=c1ccc(-c2ccc(OCCCN3CCCCC3)c(F)c2)nn1-c1ccccc1 [Example 10, 6-[3-Fluoro-4-(3-piperidin-1-yl-propoxy)-phenyl]-2-phenyl-2H-pyridazin-3-one]	0.1 to 100	101 to 500
C[C@@H]1CCCN1CCCOc1ccc(-c2ccc(=O)[nH]n2)cc1 [Example 11, 6-{4-[3-((R)-2-Methyl-pyrrolidin-1-yl)-propoxy]-phenyl}-2H-pyridazin-3-one]	0.1 to 100	0.1 to 100
C[C@@H]1CCCN1CCCOc1ccc(-c2n[nH]c(=O)c3c2CCC3)cc1 [Example 12, 4-{4-[3-((R)-2-Methyl-pyrrolidin-1-yl)-propoxy]-phenyl}-2,5,6,7-tetrahydro-cyclopenta[d]pyridazin-1-one]	0.1 to 100	0.1 to 100
C[C@H](COc1ccc(-c2ccc(=O)n(C)n2)cc1)CN1CCC[C@H]1C [Example 13, 2-Methyl-6-{4-[(S)-2-methyl-3-((R)-2-methyl-pyrrolidin-1-yl)-propoxy]-phenyl}-2H-pyridazin-3-one]	0.1 to 100	0.1 to 100
C[C@@H]1CCCN1CCCOc1ccc(C2=NN(C)C(=O)CC2)cc1 [Example 16, 2-Methyl-6-{4-[3-((R)-2-methyl-pyrrolidin-1-yl)-propoxy]-phenyl}-4,5-dihydro-2H-pyridazin-3-one]	0.1 to 100	0.1 to 100
C[C@@H]1CCCN1CCCOc1ccc(C2=NN(Cc3ccccc3)C(=O)CC2)cc1 [Example 17, 2-Benzyl-6-{4-[3-((R)-2-methyl-pyrrolidin-1-yl)-propoxy]-phenyl}-4,5-dihydro-2H-pyridazin-3-one]	0.1 to 100	0.1 to 100
C[C@@H]1CCCN1CCCOc1ccc(-c2ccc(=O)n(Cc3ccccc3)n2)cc1 [Example 18, 2-Benzyl-6-{4-[3-((R)-2-methyl-pyrrolidin-1-yl)-propoxy]-phenyl}-2H-pyridazin-3-one]	0.1 to 100	0.1 to 100
C[C@@H]1CCCN1CCCOc1ccc(C2=NN(c3ccccc3)C(=O)CC2)cc1 [Example 19]	0.1 to 100	0.1 to 100

Structure (SMILES)	Ki (human H3 receptor) [nM]	Ki [1] [nM]
C[C@@H]1CCCN1CCCOc1ccc(-c2ccc(=O)n(-c3ccccc3)n2)cc1 [Example 20, 6-{4-[3-((R)-2-Methyl-pyrrolidin-1-yl)-propoxy]-phenyl}-2-phenyl-2H-pyridazin-3-one]	0.1 to 100	0.1 to 100
C[C@@H]1CCCN1CCCOc1ccc(-n2ncccc2=O)cc1 [Example 21, 2-{4-[3-((R)-2-Methyl-pyrrolidin-1-yl)-propoxy]-phenyl}-2H-pyridazin-3-one]	0.1 to 100	501 to 1000
CC(C)n1nc(-c2ccc(OCCCN3CCC[C@H]3C)cc2)c2sccc2c1=O [Example 22, 5-Isopropyl-7-{4-[3-((R)-2-methyl-pyrrolidin-1-yl)-propoxy]-phenyl}-5H-thieno[2,3-d]pyridazin-4-one]	0.1 to 100	0.1 to 100
CC1CCC(C)N1CCCOc1ccc(-c2nn(C(C)C)c(=O)c3ccsc23)cc1 (centres unmarked) [Example 23, 7-{4-[3-(2,5-Dimethyl-pyrrolidin-1-yl)-propoxy]-phenyl}-5-isopropyl-5H-thieno[2,3-d]pyridazin-4-one]	0.1 to 100	101 to 500
CC(C)n1nc(-c2ccc(OCCCN3CCCCC3)cc2)c2sccc2c1=O [Example 24, 5-Isopropyl-7-[4-(3-piperidin-1-yl-propoxy)-phenyl]-5H-thieno[2,3-d]pyridazin-4-one]	0.1 to 100	0.1 to 100
CC(C)n1nc(-c2ccc(OCCCN3CCCC(C)(C)C3)cc2)c2sccc2c1=O [Example 25, 7-{4-[3-(3,3-Dimethyl-piperidin-1-yl)-propoxy]-phenyl}-5-isopropyl-5H-thieno[2,3-d]pyridazin-4-one]	101 to 500	> 1000
COC[C@@H]1CCCN1CCCOc1ccc(-c2nn(C(C)C)c(=O)c3ccsc23)cc1 [Example 26, 5-Isopropyl-7-{4-[3-((S)-2-methoxymethyl-pyrrolidin-1-yl)propoxy]-phenyl}-5H-thieno[2,3-d]pyridazin-4-one]	0.1 to 100	> 1000
COC[C@H]1CCCN1CCCOc1ccc(-c2nn(C(C)C)c(=O)c3ccsc23)cc1 [Example 27, 5-Isopropyl-7-{4-[3-((R)-2-methoxymethyl-pyrrolidin-1-yl)-propoxy]-phenyl}-5H-thieno[2,3-d]pyridazin-4-one]	> 1000	> 1000
CCN(CC)CCCOc1ccc(-c2nn(C(C)C)c(=O)c3ccsc23)cc1 [Example 28, 7-[4-(3-Diethylamino-propoxy)-phenyl]-5-isopropyl-5H-thieno[2,3-d]pyridazin-4-one]	0.1 to 100	101 to 500
CC(C)n1nc(-c2ccc(OCCCN3CCCC3)cc2)c2sccc2c1=O [Example 29, 5-Isopropyl-7-[4-(3-pyrrolidin-1-yl-propoxy)-phenyl]-5H-thieno[2,3-d]-pyridazin-4-one]	0.1 to 100	0.1 to 100
CC(C)n1nc(-c2ccc(OCCCN3CCC(N4CCCC4)CC3)cc2)c2sccc2c1=O [Example 30, 5-Isopropyl-7-{4-[3-(4-pyrrolidin-1-yl-piperidin-1-yl)-propoxy]-phenyl}-5H-thieno[2,3-d]pyridazin-4-one]	0.1 to 100	501 to 1000
CC(C)n1nc(-c2ccc(OCCCN3[C@H](C)CC[C@H]3C)cc2)c2sccc2c1=O [Example 31, 7-{4-[3-((2R,5R)-2,5-Dimethyl-pyrrolidin-1-yl)-propoxy]-phenyl}-5-isopropyl-5H-thieno[2,3-d]pyridazin-4-one]	0.1 to 100	101 to 500
CCCn1nc(-c2ccc(OCCCN3CCC[C@H]3C)cc2)c2sccc2c1=O [Example 32, 7-{4-[3-((R)-2-Methyl-pyrrolidin-1-yl)-propoxy]phenyl}-5-propyl-5H-thieno[2,3-d]pyridazin-4-one]	0.1 to 100	0.1 to 100
CCCn1nc(-c2ccc(OCCCN3[C@H](C)CC[C@H]3C)cc2)c2sccc2c1=O [Example 33, 7-{4-[3-((2R,5R)-2,5-Dimethyl-pyrrolidin-1-yl)-propoxy]-phenyl)-5-propyl-5H-thieno[2,3-d]pyridazin-4-one]	0.1 to 100	101 to 500
CCCn1nc(-c2ccc(OCCCN3CCC(C)CC3)cc2)c2sccc2c1=O [Example 34, 7-{4-[3-(4-Methyl-piperidin-1-yl)-propoxy]-phenyl}-5-propyl-5H-thieno[2,3-d]pyridazin-4-one]	0.1 to 100	0.1 to 100
